# Source: patent US20240083857A1, “2-Methyl-Quinazolines” (Bayer Pharma Aktiengesellschaft, priority 2017, published 2024)
# How the values were obtained:
# [1] = target: K-Ras^G12C : hSOS1 interaction (Homo sapiens, UniProt Q07889); experiment: Biochemical assay 1: K-Ras^G12C interaction assay with hSOS1 (HTRF); format: binding; details: read-out: Assay 1 (KRAS-SOS Interaction) activity expressed as IC50
# [2] = target: human SOS1 (nucleotide exchange of K-Ras^G12C) (Homo sapiens, UniProt Q07889); experiment: Biochemical assay 2: K-Ras^G12C activation assay by hSOS1 at high GTP concentration (HTRF); details: high GTP; read-out: Assay 2 (KRAS-Activation by SOS high GTP) activity expressed as IC50
Compound,IC50 [1],IC50 [2]
"COc1cc2nc(C)nc(NC(C)c3ccc(-c4cnn(CC(N)=O)c4)s3)c2cc1OC (stereo not drawn) [Example 249, 2-[4-(5-{1-[(6,7-dimethoxy-2-methylquinazolin-4-yl)amino]ethyl}thiophen-2-yl)-1H-pyrazol-1-yl]acetamide]",6100 nM,5310 nM
"CNCc1ccccc1-c1ccc(C(C)Nc2nc(C)nc3cc(OC)c(OC)cc23)s1 (stereo not drawn) [Example 250, 6,7-dimethoxy-2-methyl-N-[1-(5-{2-[(methylamino)methyl]phenyl}thiophen-2-yl)ethyl]quinazolin-4-amine]",50 nM,58.1 nM
"COc1cc2nc(C)nc(NC(C)c3csc(-c4cnn(CCO)c4)c3)c2cc1OC (stereo not drawn) [Example 251, 2-[4-(4-{1-[(6,7-dimethoxy-2-methylquinazolin-4-yl)amino]ethyl}thiophen-2-yl)-1H-pyrazol-1-yl]ethanol]",4570 nM,5840 nM
"COc1cc2nc(C)nc(NC(C)c3ccc(-c4ccccc4CN)s3)c2cc1OC (stereo not drawn) [Example 252, N-[1-{5-[2-(aminomethyl)phenyl]thiophen-2-yl}ethyl]-6,7-dimethoxy-2-methylquinazolin-4-amine]",80.2 nM,74.1 nM
"COc1cc2nc(C)nc(NC(C)c3csc(-c4cnc5n4CCC5)c3)c2cc1OC (stereo not drawn) [Example 253, N-{1-[5-(6,7-dihydro-5H-pyrrolo[1,2-a]imidazol-3-yl)thiophen-3-yl]ethyl}-6,7-dimethoxy-2-methylquinazolin-4-amine]",1310 nM,2330 nM
"COc1cc2nc(C)nc(NC(C)c3csc(-c4cnn(CCN5CCCC5)c4)c3)c2cc1OC (stereo not drawn) [Example 254, 6,7-dimethoxy-2-methyl-N-[1-(5-{1-[2-(pyrrolidin-1-yl)ethyl]-1H-pyrazol-4-yl}thiophen-3-yl)ethyl]quinazolin-4-amine]",814 nM,1590 nM
"COc1cc2nc(C)nc(NC(C)c3csc(-c4ccc(F)cc4CN)c3)c2cc1OC (stereo not drawn) [Example 255, N-[1-{5-[2-(aminomethyl)-4-fluorophenyl]thiophen-3-yl}ethyl]-6,7-dimethoxy-2-methylquinazolin-4-amine]",248 nM,317 nM
"COc1cc2nc(C)nc(N[C@H](C)c3cccc(-c4cnn(CCO)c4)c3)c2cc1OC [Example 256, 2-[4-(3-{(1R)-1-[(6,7-dimethoxy-2-methylquinazolin-4-yl)amino]ethyl}phenyl)-1H-pyrazol-1-yl]ethanol]",473 nM,828 nM
"COc1cc2nc(C)nc(N[C@H](C)c3cccc(-c4cnn(CCN5CCCC5)c4)c3)c2cc1OC [Example 257, 6,7-dimethoxy-2-methyl-N-[(1R)-1-(3-{1-[2-(pyrrolidin-1-yl)ethyl]-1H-pyrazol-4-yl}phenyl)ethyl]quinazolin-4-amine]",363 nM,754 nM
